According to ChEMBL document CHEMBL5715260, “Selectivity Literature for EUbOPEN Chemogenomic Library” (2024):

Key:
[1] = biological target: T1, Hepatocyte nuclear factor 4-alpha (Homo sapiens) (UniProt P41235); assay: Selectivity interaction (Reporter gene assay) EUB0001167a HNF4A; design: recommended concentration 1 uM
T1 sequence (whole entry): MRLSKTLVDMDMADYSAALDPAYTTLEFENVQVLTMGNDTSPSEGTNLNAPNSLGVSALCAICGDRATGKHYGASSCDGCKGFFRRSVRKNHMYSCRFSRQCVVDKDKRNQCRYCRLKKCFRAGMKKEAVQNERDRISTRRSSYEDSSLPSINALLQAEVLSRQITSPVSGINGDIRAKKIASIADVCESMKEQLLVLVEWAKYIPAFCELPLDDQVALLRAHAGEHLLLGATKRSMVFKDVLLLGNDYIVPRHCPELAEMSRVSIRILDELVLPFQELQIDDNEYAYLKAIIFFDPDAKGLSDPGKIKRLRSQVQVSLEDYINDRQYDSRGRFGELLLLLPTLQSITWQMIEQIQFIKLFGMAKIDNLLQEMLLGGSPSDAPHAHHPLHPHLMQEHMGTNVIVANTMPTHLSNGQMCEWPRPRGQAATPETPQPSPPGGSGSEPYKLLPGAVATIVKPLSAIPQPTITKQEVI

[2] = biological target: T2, Nuclear receptor subfamily 2 group C member 1 (Homo sapiens) (UniProt P13056); assay: Selectivity interaction (Reporter gene assay) EUB0001167a NR2C1; design: recommended concentration 1 uM
T2 sequence (whole entry): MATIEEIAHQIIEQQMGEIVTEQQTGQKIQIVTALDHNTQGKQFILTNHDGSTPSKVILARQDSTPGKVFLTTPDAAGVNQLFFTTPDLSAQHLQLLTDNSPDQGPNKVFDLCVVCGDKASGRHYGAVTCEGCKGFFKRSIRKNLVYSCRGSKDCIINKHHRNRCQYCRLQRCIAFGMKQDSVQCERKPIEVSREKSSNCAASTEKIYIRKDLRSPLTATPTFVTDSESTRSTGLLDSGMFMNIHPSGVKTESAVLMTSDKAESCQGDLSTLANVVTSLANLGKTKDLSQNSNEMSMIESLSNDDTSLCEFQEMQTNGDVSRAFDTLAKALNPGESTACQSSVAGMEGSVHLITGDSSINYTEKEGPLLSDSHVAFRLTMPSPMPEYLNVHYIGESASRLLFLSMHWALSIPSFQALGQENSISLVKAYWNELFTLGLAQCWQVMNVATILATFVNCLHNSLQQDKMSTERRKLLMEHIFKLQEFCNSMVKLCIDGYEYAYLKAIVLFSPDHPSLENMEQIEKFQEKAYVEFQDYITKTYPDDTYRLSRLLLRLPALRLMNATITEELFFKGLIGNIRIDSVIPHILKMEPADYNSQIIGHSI

[3] = biological target: Nuclear receptor subfamily 2 group E member 1 (Homo sapiens) (UniProt Q9Y466); assay: Selectivity interaction (Reporter gene assay) EUB0001167a NR2E1; design: recommended concentration 1 uM
Sequence of Nuclear receptor subfamily 2 group E member 1 (Homo sapiens) (Q9Y466 whole entry): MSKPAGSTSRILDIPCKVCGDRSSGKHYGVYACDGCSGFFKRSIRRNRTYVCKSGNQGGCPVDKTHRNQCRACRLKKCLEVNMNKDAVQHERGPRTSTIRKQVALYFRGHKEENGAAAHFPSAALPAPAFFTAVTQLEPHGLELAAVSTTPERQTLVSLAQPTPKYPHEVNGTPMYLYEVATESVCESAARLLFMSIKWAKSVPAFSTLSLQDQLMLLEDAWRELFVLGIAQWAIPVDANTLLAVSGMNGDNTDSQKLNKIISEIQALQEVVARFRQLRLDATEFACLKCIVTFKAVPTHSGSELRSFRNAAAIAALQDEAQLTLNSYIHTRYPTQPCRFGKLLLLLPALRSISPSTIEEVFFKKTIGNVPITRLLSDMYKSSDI

[4] = biological target: Nuclear receptor subfamily 4immunitygroup A member 1 (Homo sapiens) (UniProt P22736); assay: Selectivity interaction (Reporter gene assay) EUB0001167a NR4A1; design: recommended concentration 1 uM
Sequence of Nuclear receptor subfamily 4immunitygroup A member 1 (Homo sapiens) (P22736 whole entry): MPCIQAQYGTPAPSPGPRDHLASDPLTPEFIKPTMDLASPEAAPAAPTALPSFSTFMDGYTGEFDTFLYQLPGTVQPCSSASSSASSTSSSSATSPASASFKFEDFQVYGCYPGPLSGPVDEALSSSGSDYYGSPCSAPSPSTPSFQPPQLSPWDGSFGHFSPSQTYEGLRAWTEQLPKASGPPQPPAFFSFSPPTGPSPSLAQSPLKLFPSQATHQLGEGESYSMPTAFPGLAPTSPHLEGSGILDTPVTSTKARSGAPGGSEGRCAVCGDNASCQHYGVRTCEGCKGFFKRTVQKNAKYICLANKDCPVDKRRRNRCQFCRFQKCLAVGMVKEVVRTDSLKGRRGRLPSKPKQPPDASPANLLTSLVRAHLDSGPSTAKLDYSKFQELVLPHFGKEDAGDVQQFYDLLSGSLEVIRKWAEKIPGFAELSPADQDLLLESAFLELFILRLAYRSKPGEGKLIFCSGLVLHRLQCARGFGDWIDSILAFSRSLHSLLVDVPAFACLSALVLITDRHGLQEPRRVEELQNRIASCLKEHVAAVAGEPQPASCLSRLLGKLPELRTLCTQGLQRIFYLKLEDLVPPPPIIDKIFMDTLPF

[5] = biological target: Steroidogenic factor 1 (Homo sapiens) (UniProt Q13285); assay: Selectivity interaction (Reporter gene assay) EUB0001167a NR5A1; design: recommended concentration 1 uM
Sequence of Steroidogenic factor 1 (Homo sapiens) (Q13285 whole entry): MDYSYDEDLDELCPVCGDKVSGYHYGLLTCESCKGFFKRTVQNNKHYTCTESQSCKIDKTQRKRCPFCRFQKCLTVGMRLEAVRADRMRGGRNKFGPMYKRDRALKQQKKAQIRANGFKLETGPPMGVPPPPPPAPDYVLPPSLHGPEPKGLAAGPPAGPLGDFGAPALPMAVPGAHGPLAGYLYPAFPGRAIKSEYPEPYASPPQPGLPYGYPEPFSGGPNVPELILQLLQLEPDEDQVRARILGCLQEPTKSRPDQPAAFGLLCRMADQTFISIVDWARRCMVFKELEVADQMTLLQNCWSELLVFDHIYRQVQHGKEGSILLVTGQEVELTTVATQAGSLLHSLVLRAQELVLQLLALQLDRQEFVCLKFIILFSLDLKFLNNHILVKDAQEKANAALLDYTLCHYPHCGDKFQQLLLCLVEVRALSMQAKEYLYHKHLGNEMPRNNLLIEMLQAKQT

[6] = biological target: T3, Alpha trans-inducing protein (Human alphaherpesvirus 1) (UniProt A0A5J6DW59); assay: Selectivity interaction (Reporter gene assay) EUB0001167a UL48; design: recommended concentration 1 uM
T3 sequence (A0A5J6DW59 as listed by the source): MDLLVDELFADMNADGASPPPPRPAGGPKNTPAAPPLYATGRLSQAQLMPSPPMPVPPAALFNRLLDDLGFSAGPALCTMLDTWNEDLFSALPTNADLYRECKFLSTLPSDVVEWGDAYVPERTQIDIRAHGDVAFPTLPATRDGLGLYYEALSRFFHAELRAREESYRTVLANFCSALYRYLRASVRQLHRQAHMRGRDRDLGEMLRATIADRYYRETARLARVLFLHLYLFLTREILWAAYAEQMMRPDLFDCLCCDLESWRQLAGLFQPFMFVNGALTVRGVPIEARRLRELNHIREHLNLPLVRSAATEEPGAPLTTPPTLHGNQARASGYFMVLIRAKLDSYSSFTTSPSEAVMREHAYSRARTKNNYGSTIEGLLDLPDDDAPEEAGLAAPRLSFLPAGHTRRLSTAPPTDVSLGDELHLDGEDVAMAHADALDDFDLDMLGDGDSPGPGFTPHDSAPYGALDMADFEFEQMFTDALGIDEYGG

[7] = biological target: T4, Retinoic acid receptor RXR-alpha (Homo sapiens) (UniProt P19793); assay: Selectivity interaction (Reporter gene assay) EUB0001167a RXRA; design: recommended concentration 1 uM; conditions: reference bexarotene 1 uM, Selectivity number of off-targets 0.0, Selectivity number of targets 1.0, Source Knowledge inhouse
T4 sequence (whole entry): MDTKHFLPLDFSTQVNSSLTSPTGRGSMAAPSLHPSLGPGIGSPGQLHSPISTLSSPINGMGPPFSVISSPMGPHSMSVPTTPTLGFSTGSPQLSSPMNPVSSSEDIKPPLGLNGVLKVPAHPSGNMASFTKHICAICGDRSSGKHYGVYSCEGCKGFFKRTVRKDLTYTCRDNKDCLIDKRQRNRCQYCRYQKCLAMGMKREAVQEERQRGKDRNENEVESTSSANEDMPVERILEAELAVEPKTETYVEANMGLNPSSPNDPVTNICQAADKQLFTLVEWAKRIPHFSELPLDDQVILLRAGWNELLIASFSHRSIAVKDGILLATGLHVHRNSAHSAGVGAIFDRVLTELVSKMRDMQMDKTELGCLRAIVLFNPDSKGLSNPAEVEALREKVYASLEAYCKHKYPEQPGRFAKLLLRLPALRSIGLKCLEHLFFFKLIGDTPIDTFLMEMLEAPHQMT

[8] = biological target: T1, Hepatocyte nuclear factor 4-alpha (Homo sapiens); assay: Selectivity interaction (Reporter gene assay) EUB0001159a HNF4A; design: recommended concentration 1 uM
[9] = biological target: T2, Nuclear receptor subfamily 2 group C member 1 (Homo sapiens); assay: Selectivity interaction (Reporter gene assay) EUB0001159a NR2C1; design: recommended concentration 1 uM
[10] = biological target: Nuclear receptor subfamily 2 group E member 1 (Homo sapiens) (UniProt Q9Y466); assay: Selectivity interaction (Reporter gene assay) EUB0001159a NR2E1; design: recommended concentration 1 uM
[11] = biological target: Nuclear receptor subfamily 4immunitygroup A member 1 (Homo sapiens) (UniProt P22736); assay: Selectivity interaction (Reporter gene assay) EUB0001159a NR4A1; design: recommended concentration 1 uM
[12] = biological target: Steroidogenic factor 1 (Homo sapiens) (UniProt Q13285); assay: Selectivity interaction (Reporter gene assay) EUB0001159a NR5A1; design: recommended concentration 1 uM
[13] = biological target: T3, Alpha trans-inducing protein (Human alphaherpesvirus 1); assay: Selectivity interaction (Reporter gene assay) EUB0001159a UL48; design: recommended concentration 1 uM
[14] = biological target: T4, Retinoic acid receptor RXR-alpha (Homo sapiens); assay: Selectivity interaction (Reporter gene assay) EUB0001159a RXRA; design: recommended concentration 1 uM; conditions: reference bexarotene 1 uM, Selectivity number of off-targets 0.0, Selectivity number of targets 1.0, Source Knowledge inhouse
[15] = biological target: Steroidogenic factor 1 (Homo sapiens) (UniProt Q13285); assay: Selectivity interaction (Reporter gene assay) EUB0001161a NR5A1; design: recommended concentration 10 uM
[16] = biological target: T3, Alpha trans-inducing protein (Human alphaherpesvirus 1); assay: Selectivity interaction (Reporter gene assay) EUB0001161a UL48; design: recommended concentration 10 uM
[17] = biological target: Nuclear receptor ROR-alpha (Homo sapiens) (UniProt P35398); conditions: screened at recom. conc., Selectivity number of off-targets 1.0, Selectivity number of targets 19.0, Source Knowledge inhouse
Sequence of Nuclear receptor ROR-alpha (Homo sapiens) (P35398 whole entry): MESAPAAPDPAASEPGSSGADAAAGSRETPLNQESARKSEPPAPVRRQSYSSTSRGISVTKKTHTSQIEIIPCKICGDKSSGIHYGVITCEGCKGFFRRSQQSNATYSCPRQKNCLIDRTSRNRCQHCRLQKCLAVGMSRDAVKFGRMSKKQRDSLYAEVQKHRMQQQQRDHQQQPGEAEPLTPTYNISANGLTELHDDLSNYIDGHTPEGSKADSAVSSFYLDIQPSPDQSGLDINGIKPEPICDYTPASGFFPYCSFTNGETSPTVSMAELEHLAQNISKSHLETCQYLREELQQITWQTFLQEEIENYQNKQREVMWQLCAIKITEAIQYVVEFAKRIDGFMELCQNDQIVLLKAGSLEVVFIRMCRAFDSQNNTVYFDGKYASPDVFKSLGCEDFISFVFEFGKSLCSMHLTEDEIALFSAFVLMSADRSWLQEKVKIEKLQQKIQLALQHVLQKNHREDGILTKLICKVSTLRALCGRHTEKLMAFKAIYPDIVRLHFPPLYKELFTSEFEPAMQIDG

[18] = biological target: T2, Nuclear receptor subfamily 2 group C member 1 (Homo sapiens); conditions: screened at recom. conc., Selectivity number of off-targets 1.0, Selectivity number of targets 5.0, Source Knowledge inhouse
[19] = biological target: T1, Hepatocyte nuclear factor 4-alpha (Homo sapiens)
[20] = biological target: Nuclear receptor subfamily 2 group E member 1 (Homo sapiens) (UniProt Q9Y466)
[21] = biological target: Nuclear receptor subfamily 4immunitygroup A member 1 (Homo sapiens) (UniProt P22736)
[22] = biological target: T1, Hepatocyte nuclear factor 4-alpha (Homo sapiens); assay: Selectivity interaction (Reporter gene assay) EUB0001166a HNF4A; design: recommended concentration 1 uM
[23] = biological target: T2, Nuclear receptor subfamily 2 group C member 1 (Homo sapiens); assay: Selectivity interaction (Reporter gene assay) EUB0001166a NR2C1; design: recommended concentration 1 uM
[24] = biological target: Nuclear receptor subfamily 2 group E member 1 (Homo sapiens) (UniProt Q9Y466); assay: Selectivity interaction (Reporter gene assay) EUB0001166a NR2E1; design: recommended concentration 1 uM
[25] = biological target: Nuclear receptor subfamily 4immunitygroup A member 1 (Homo sapiens) (UniProt P22736); assay: Selectivity interaction (Reporter gene assay) EUB0001166a NR4A1; design: recommended concentration 1 uM
[26] = biological target: Steroidogenic factor 1 (Homo sapiens) (UniProt Q13285); assay: Selectivity interaction (Reporter gene assay) EUB0001166a NR5A1; design: recommended concentration 1 uM
[27] = biological target: T3, Alpha trans-inducing protein (Human alphaherpesvirus 1); assay: Selectivity interaction (Reporter gene assay) EUB0001166a UL48; design: recommended concentration 1 uM
[28] = biological target: T4, Retinoic acid receptor RXR-alpha (Homo sapiens); assay: Selectivity interaction (Reporter gene assay) EUB0001166a RXRA; design: recommended concentration 1 uM; conditions: reference bexarotene 1 uM, Selectivity number of off-targets 0.0, Selectivity number of targets 1.0, Source Knowledge inhouse
[29] = biological target: T1, Hepatocyte nuclear factor 4-alpha (Homo sapiens); assay: Selectivity interaction (Reporter gene assay) EUB0001164a HNF4A; design: recommended concentration 1 uM
[30] = biological target: T2, Nuclear receptor subfamily 2 group C member 1 (Homo sapiens); assay: Selectivity interaction (Reporter gene assay) EUB0001164a NR2C1; design: recommended concentration 1 uM
[31] = biological target: Nuclear receptor subfamily 2 group E member 1 (Homo sapiens) (UniProt Q9Y466); assay: Selectivity interaction (Reporter gene assay) EUB0001164a NR2E1; design: recommended concentration 1 uM
[32] = biological target: Nuclear receptor subfamily 4immunitygroup A member 1 (Homo sapiens) (UniProt P22736); assay: Selectivity interaction (Reporter gene assay) EUB0001164a NR4A1; design: recommended concentration 1 uM
[33] = biological target: Steroidogenic factor 1 (Homo sapiens) (UniProt Q13285); assay: Selectivity interaction (Reporter gene assay) EUB0001164a NR5A1; design: recommended concentration 1 uM
[34] = biological target: T3, Alpha trans-inducing protein (Human alphaherpesvirus 1); assay: Selectivity interaction (Reporter gene assay) EUB0001164a UL48; design: recommended concentration 1 uM
[35] = biological target: T4, Retinoic acid receptor RXR-alpha (Homo sapiens); assay: Selectivity interaction (Reporter gene assay) EUB0001164a RXRA; design: recommended concentration 1 uM; conditions: reference bexarotene 1 uM, Selectivity number of off-targets 0.0, Selectivity number of targets 1.0, Source Knowledge inhouse

CC(=O)Oc1ccc2c(c1)[C@@]1(C)CCC[C@](C)(C(=O)OC(=O)[C@@]3(C)CCC[C@]4(C)c5cc(OC(C)=O)ccc5CC[C@@H]34)[C@@H]1CC2 gave a Remaining activity [1] of 0.928, a Fold activation [2] of 1.13 and a Fold activation [3] of 1.06. The Fold activation [4] was 1.11, the Remaining activity [5] was 0.86 and the P-value [6] was 0.00117. For the same compound, the Relative activation [7] was 0.795%.
Compound CCc1ccc(N(CC(C)C)S(=O)(=O)c2ccc(OCC3CCOCC3)c(CO)c2)cc1 has a Remaining activity [8] of 0.994, a Remaining activity [9] of 0.852 and a Remaining activity [10] of 0.852. For the same compound, the Remaining activity [11] was 0.905, the Remaining activity [12] was 0.989 and the P-value [13] was 0.00142. The Relative activation [14] was 0.288%.
COc1cc(O)c(C(CC(=O)N2C[C@H](C)C[C@H](C)C2)c2ccc3c(c2)OCO3)c(OC)c1 (stereo not given in full) gave a Remaining activity [15] of 0.942, a P-value [16] of 0.000227 and a Remaining activity [17] of 0.851. The Remaining activity [18] was 0.425, the Remaining activity [19] was 0.972 and the Remaining activity [20] was 0.509. The Remaining activity [21] was 0.899.
CC(C)(O)c1cn(-c2ccc(-c3cccc(S(C)(=O)=O)c3)cc2)c(C(C)(C)c2ccccc2Cl)n1 gave a Fold activation [22] of 1.15, a Fold activation [23] of 1.38 and a Remaining activity [24] of 0.931. For the same compound, the Fold activation [25] was 1.01, the Fold activation [26] was 1.21 and the P-value [27] was 0.000455. For the same compound, the Relative activation [28] was 0.459%.
Compound CCOC(=O)c1ccc(CN(Cc2ccc(-c3cccc(S(C)(=O)=O)c3)cc2)S(=O)(=O)c2c(C)cc(C)cc2C)o1 has a Fold activation [29] of 1.29, a Fold activation [30] of 1.02 and a Remaining activity [31] of 0.776. It also gave a Fold activation [32] of 1.26, a Fold activation [33] of 1.07 and a P-value [34] of 0.0222. It also gave a Relative activation [35] of 0.903%.
